According to the supplement of paper PMC13380429:

Tests used:
Details in all cases: 72 h
[1] = tested on: Caco-2; test: cell viability relative to DMSO; higher = less toxic
[2] = tested on: Vero E6; test: as above
[3] = tested on: Caco-2; test: relative viability EC50 (midpoint between 100% and the lowest measured viability); higher = less toxic
[4] = tested on: Vero E6; test: as above
[5] = tested on: Caco-2; test: drug sensitivity score (DSS) for viability; higher = more toxic; extreme values may be limits of the assay
[6] = tested on: Vero E6; test: as above
[7] = tested on: U2OS; test: cell viability relative to DMSO; higher = less toxic
[8] = tested on: HepG2; test: as above
[9] = tested on: Calu-3; test: as above
[10] = tested on: U2OS; test: relative viability EC50 (midpoint between 100% and the lowest measured viability); higher = less toxic
[11] = tested on: Calu-3; test: as above
[12] = tested on: U2OS; test: drug sensitivity score (DSS) for viability; higher = more toxic; extreme values may be limits of the assay
[13] = tested on: HepG2; test: as above
[14] = tested on: Calu-3; test: as above

**Q.** `CC(C)[C@H]1CC[C@H](C(=O)N[C@H](Cc2ccccc2)C(=O)O)CC1` [nateglinide] was tested. Which cell viability ([1]; 1 nM) did it give?
**A.** 92.7%

**Q.** What about the cell viability ([1]; 10 nM) of the same molecule?
**A.** 95.6%

**Q.** And the cell viability ([1]; 100 nM)?
**A.** 105%

**Q.** And the cell viability ([1]; 1000 nM)?
**A.** 106%

**Q.** And the cell viability ([1]; 10000 nM)?
**A.** 96.7%

**Q.** And the cell viability ([2]; 1 nM)?
**A.** 99.7%

**Q.** And the cell viability ([2]; 10 nM)?
**A.** 97%

**Q.** What about the cell viability ([2]; 100 nM) of the same molecule?
**A.** 92.9%

**Q.** And the cell viability ([2]; 1000 nM)?
**A.** 93.8%

**Q.** And the cell viability ([2]; 10000 nM)?
**A.** 94.1%

**Q.** And the “relative viability EC50” value [3]?
**A.** > 10 µM

**Q.** And the “relative viability EC50” value [4]?
**A.** > 10 µM

**Q.** And the drug sensitivity score [5]?
**A.** 0

**Q.** And the drug sensitivity score [6]?
**A.** 0

**Q.** What does the source list for `N#Cc1ccc2[nH]cc(CCCCN3CCN(c4ccc5oc(C(N)=O)cc5c4)CC3)c2c1` [vilazodone]?
**A.** cell viability ([1]; 1 nM): 96.6%; cell viability ([1]; 10 nM): 106%; cell viability ([1]; 100 nM): 104%; cell viability ([1]; 1000 nM): 101%; cell viability ([1]; 10000 nM): 83%; cell viability ([2]; 1 nM): 92.7%; cell viability ([2]; 10 nM): 99.6%; cell viability ([2]; 100 nM): 95.3%; cell viability ([2]; 1000 nM): 91.2%; cell viability ([2]; 10000 nM): 71.6%; cell viability ([7]; 1 nM): 99.4%; cell viability ([7]; 10 nM): 108%; cell viability ([7]; 100 nM): 97.7%; cell viability ([7]; 1000 nM): 101%; cell viability ([7]; 10000 nM): 92%; cell viability ([8]; 1 nM): 107%; cell viability ([8]; 10 nM): 99.9%; cell viability ([8]; 100 nM): 99.5%; cell viability ([8]; 1000 nM): 95.9%; cell viability ([8]; 10000 nM): 66.4%; cell viability ([9]; 1 nM): 87.5%; cell viability ([9]; 10 nM): 88.7%; cell viability ([9]; 100 nM): 74.5%; cell viability ([9]; 1000 nM): 93.6%; cell viability ([9]; 10000 nM): 86.6%; relative viability EC50 [3]: > 10 µM; relative viability EC50 [10]: > 10 µM; relative viability EC50 [11]: > 10 µM; drug sensitivity score [5]: 0.3; drug sensitivity score [6]: 2; drug sensitivity score [12]: 0; drug sensitivity score [13]: 2.2; drug sensitivity score [14]: 0

**Q.** What does the source list for `COc1ccc(/C=C/C(=O)Nc2ccccc2C(=O)O)cc1OC` [tranilast]?
**A.** cell viability ([1]; 1 nM): 96.9%; cell viability ([1]; 10 nM): 97%; cell viability ([1]; 100 nM): 95.3%; cell viability ([1]; 1000 nM): 103%; cell viability ([1]; 10000 nM): 93.3%; cell viability ([7]; 1 nM): 97.2%; cell viability ([7]; 10 nM): 97.3%; cell viability ([7]; 100 nM): 93.2%; cell viability ([7]; 1000 nM): 99.8%; cell viability ([7]; 10000 nM): 96%; cell viability ([9]; 1 nM): 91.9%; cell viability ([9]; 10 nM): 107%; cell viability ([9]; 100 nM): 88.3%; cell viability ([9]; 1000 nM): 95.9%; cell viability ([9]; 10000 nM): 93.1%; relative viability EC50 [3]: > 10 µM; relative viability EC50 [10]: > 10 µM; relative viability EC50 [11]: > 10 µM; drug sensitivity score [5]: 0; drug sensitivity score [12]: 0; drug sensitivity score [14]: 0

**Q.** Which cell viability ([1]; 1 nM) does the source give for `Nc1ncnc2[nH]nc(Nc3ccc(F)cc3)c12` here?
**A.** 95%

**Q.** And the cell viability ([1]; 10 nM)?
**A.** 93.5%

**Q.** And the cell viability ([1]; 100 nM)?
**A.** 106%

**Q.** What about the cell viability ([1]; 1000 nM) of the same molecule?
**A.** 93.1%

**Q.** And the cell viability ([1]; 10000 nM)?
**A.** 73.4%

**Q.** What about the cell viability ([2]; 1 nM) of the same molecule?
**A.** 107%

**Q.** What about the cell viability ([2]; 10 nM) of the same molecule?
**A.** 103%

**Q.** What about the cell viability ([2]; 100 nM) of the same molecule?
**A.** 99.8%

**Q.** What about the cell viability ([2]; 1000 nM) of the same molecule?
**A.** 101%

**Q.** What about the cell viability ([2]; 10000 nM) of the same molecule?
**A.** 54.4%

**Q.** What about the cell viability ([7]; 1 nM) of the same molecule?
**A.** 98.5%

**Q.** And the cell viability ([7]; 10 nM)?
**A.** 98.9%

**Q.** And the cell viability ([7]; 100 nM)?
**A.** 98.4%

**Q.** And the cell viability ([7]; 1000 nM)?
**A.** 96%

**Q.** And the cell viability ([7]; 10000 nM)?
**A.** 83%

**Q.** What about the cell viability ([8]; 1 nM) of the same molecule?
**A.** 114%

**Q.** And the cell viability ([8]; 10 nM)?
**A.** 101%

**Q.** What about the cell viability ([8]; 100 nM) of the same molecule?
**A.** 108%

**Q.** And the cell viability ([8]; 1000 nM)?
**A.** 96.5%

**Q.** And the cell viability ([8]; 10000 nM)?
**A.** 66.2%

**Q.** And the cell viability ([9]; 1 nM)?
**A.** 102%

**Q.** What about the cell viability ([9]; 10 nM) of the same molecule?
**A.** 101%

**Q.** What about the cell viability ([9]; 100 nM) of the same molecule?
**A.** 101%

**Q.** And the cell viability ([9]; 1000 nM)?
**A.** 95.6%

**Q.** What about the cell viability ([9]; 10000 nM) of the same molecule?
**A.** 79.2%

**Q.** What about the “relative viability EC50” value [10] of the same molecule?
**A.** > 10 µM

**Q.** And the “relative viability EC50” value [11]?
**A.** > 10 µM

**Q.** What about the drug sensitivity score [5] of the same molecule?
**A.** 2.1

**Q.** What about the drug sensitivity score [6] of the same molecule?
**A.** 2.3

**Q.** What about the drug sensitivity score [12] of the same molecule?
**A.** 0.8

**Q.** What about the drug sensitivity score [13] of the same molecule?
**A.** 2.1

**Q.** What about the drug sensitivity score [14] of the same molecule?
**A.** 1.2
